Measurements from PMC10330721, “Chemo-enzymatic synthesis and biological activity evaluation of propenylbenzene derivatives” (Frontiers in Microbiology, 2023).
≈ marks a conversion by molar mass, not a printed value.

Experiments:
[1] = Haemolytic activity assay; type: cell-based; details: human red blood cells (RBCs) from healthy donors, 37°C, read-out: Percentage of haemolysis
Description: This test is based on comparison of the cytotoxicity of all tested compounds in human red blood cells (RBCs) with that in a control group. RBCs for this method were obtained from a blood center from examined and healthy donors. The compounds were tested at 10, 20, 40, 60, 80, and 100 μM concentrations. The control sample contained only ethanol in the same volume as the test samples. […] The samples were incubated at 37°C for 1 h. Then, the absorbance at 540 nm was measured using a UV–Vis spectrophotometer (Specord 40, Analytik Jena, Jena, Germany). The haemolytic activity of the compounds was determined as the ratio of the absorbance of haemoglobin in the test samples to that in completely haemolyzed cells multiplied by 100%.

RBCs membrane = experiment: Fluorescence spectroscopy of the RBCs membrane (DPH probe anisotropy); type: cell-based, human; details: for Fluorescence anisotropy of the DPH probe: membranes of RBCs, 37 °C
Description: Using the DPH probe, the anisotropy values of cell membranes of RBCs modified with the test compounds were measured. RBCs for this analysis were prepared according to the method described in subsection 2.5.3. Then, the DPH probe was added to RBCs with a haematocrit of 0.2%. The final concentration of the probe in the sample was 1.3 μM. The mixture was incubated protected from light at 37°C for 30 min. Then, the compounds dissolved in ethanol were added. The compounds were tested at 20, 60, and 100 μM concentrations. Samples with compounds and control samples with alcohol of the appropriate concentration were incubated at 37°C for 1 h. Measurements in triplicate were made in quartz cuvettes using a CARY Eclipse fluorimeter (Varian, San Diego, CA, United States) at 37°C. The excitation wavelength for the DPH probe is λexc = 360 nm and the emission wavelength is λem = 426 nm.

C. albicans ATTC 90028 = experiment: Fungistatic activity assay, broth microdilution; type: cell-based; details: Candida albicans; C. albicans ATTC90028, 24 h, 35°C, tested 10–250 μg/mL; read-out: MIC50
Description: (§1) Fungistatic activity was determined using Candida albicans ATCC 90028 from the American Type Culture Collection (ATCC, Manassas, VA, United States), and clinical isolates, C. albicans 636/20, C. albicans 595/20, and C. albicans 38 obtained from Wrocław Medical University, Wrocław, Poland.
(§2) All compounds were tested for biological activity against C. albicans ATTC 90028, C. albicans 636/20, C. albicans 595/20, and C. albicans 38 using the broth microdilution method. YPD medium (20 g glucose, 20 g Bacto Peptone, 10 g yeast extract, and 1 L of distilled water, pH 6.5) was used for the tests. The compound solutions were prepared in DMSO and diluted in YPD to obtain final concentrations in the range of 10–250 μg/mL. One hundred microlitres of each solution was pipetted into the wells of a 96-well microtiter plate. The inoculum was standardized to 0.5 McFarland standard and then diluted to obtain a final suspension with a cell density of 0.5–2.5 × 10^3 CFU/mL. The inoculum size was 100 μL. The positive control comprised DMSO added in the same concentration as the tested compounds in the inoculum, whereas the negative control consisted of DMSO diluted in the broth without the addition of inoculum. The microtiter plates were incubated in a Biosan PST-60 HL Plate Shaker-Thermostat (Riga, Latvia) at 35°C under shaking at 1,000 rpm for 24 h.

C. albicans 636/20 = experiment: Fungistatic activity assay, broth microdilution; type: cell-based; details: Candida albicans; C. albicans 636/20, 24 h, 35°C, tested 10–250 μg/mL; read-out: MIC50
Description: as §1, §2

Dietzia sp. DSM44016 = experiment: Substrate toxicity in preparative biotransformation; type: cell-based; details: preparative scale, 0.2 g substrate in 500 mL PCM medium
Description: (§3) Five hundred millilitres of PCM medium was added into a 2,000-mL Erlenmeyer flask and sterilized at 121°C for 15 min. The medium was inoculated with 5 mL of pre-prepared bacterial cultures at OD600 = 0.3–0.5. The cultures were incubated at 22°C under shaking at 150 rpm for 3 days. Then, 0.2 g of diols 1b–5b dissolved in 5 mL of DMSO was added into the cultures. The samples were extracted after 3, 7, 11 days and evaluated by GC to estimate the progress of the biotransformation.

[2] = test system: R. erythropolis DSM44534 and R. erythropolis PCM2150; experiment: Substrate inhibition in preparative biotransformation; type: cell-based, Rhodococcus erythropolis; details: preparative scale, high concentration of substrate (0.2 g in 500 mL PCM medium)
Description: as §3

Caco-2 cells = experiment: Resazurin-based viability assay; type: cell-based, human; details: 24 h, 1, 50 and 200 μg/mL
Description: (§4) The human HepG2 and Caco-2 cell lines were obtained from the American Type Culture Collection (HB-8065™ and HTB-37™) and the MG-63 cell line was obtained from the European Collection of Authenticated Cell Cultures (Merck, Poznań, Poland). HepG2 cells were cultured in Dulbecco’s modified Eagle’s Medium - low glucose (Merck) supplemented with 10% foetal bovine serum (FBS) (Merck). Caco-2 cells were cultured in Dulbecco’s modified Eagle’s medium - high glucose (Merck) supplemented with 10% FBS, 2% HEPES buffer (Thermo Fisher Scientific, Warszawa, Poland), 1% Penicillin–Streptomycin-Amphotericin B Solution (100×, Merck), 1% MEM solution (100×, Thermo Fisher Scientific), and 1% Gentamycin Solution (10 mg/mL, Merck). MG-63 cells were cultured in Minimum Essential Medium (Merck) supplemented with 10% FBS. All cells were cultured in an atmosphere of 5% CO2 at 37°C.
(§5) HepG2, Caco-2, and […] were seeded in 96-well plates at 20,000 cells per well, and MG-63 cells at 10,000 cells per well, as described previously ([Marycz et al., 2012]; [Kornicka et al., 2017]). The tested compounds were dissolved in ethanol at 10 mg/mL. The concentrations were then adjusted to 1, 50, and 200 μg/mL in culture medium. Four controls were prepared: no ethanol added, and 0.01, 0.5, and 2% EtOH. The cells were treated with the compounds for 24 h. Then, cell viability was evaluated using the resazurin-based assay kit (TOX8), as described previously ([Grzesiak et al., 2011]; [Marycz et al., 2018]). The culture medium was replaced with medium containing 10% resazurin dye. The cells were incubated at 37°C in an atmosphere of 5% CO2 for 2 h. Absorbance levels were measured spectrophotometrically (Epoch) at a wavelengths of 600 nm for resazurin and 690 nm as a reference.

HepG2 cells = experiment: Resazurin-based viability assay; type: cell-based, human; details: 24 h, 1, 50 and 200 μg/mL
Description: as §4, §5

[3] = Free-radical scavenging assay (DPPH test); type: biochemical; details: DPPH 190 μM in methanol, 1 h, 25°C, absorbance 517 nm
Description: The antiradical activity of all compounds was tested using the 2,2-diphenyl-1-picrylhydrazyl (DPPH) test according to a previously described method ([Herald et al., 2012]; [Dudek et al., 2022]). One litre of a fresh solution of 190 μM DPPH in pure methanol was prepared in a dark glass bottle. The solution was kept protected from light and used within a week. The tested compounds and ascorbic acid as a positive control were prepared at concentrations in the range of 5–100 μg/mL. Two hundred microlitres of the test compound dilutions was added to each well of a 96-well microtiter plate. Then, […] of a 190 μM solution of DPPH in methanol was added. DPPH was also added to the negative control, in which 200 μL of methanol was added instead of the test compounds. All samples were tested at least in triplicate. The microtiter plates were incubated in the Biosan PST-60 HL thermoshaker at 25°C under shaking at 1,000 rpm for 1 h. […] EC50 values were calculated using Quest Graph™ EC50 Calculator (AAT Bioquest, Inc.).

[4] = test system: human osteosarcoma MG63 cell line; set-up: method as in Pandit et al., 2020; details: ref Pandit et al., 2020; cited from earlier work
C. albicans 595/20 = experiment: Fungistatic activity assay, broth microdilution; type: cell-based; details: Candida albicans; C. albicans 595/20, 24 h, 35°C, tested 10–250 μg/mL; read-out: MIC50
Description: as §1, §2

[5] = test system: human hepatocellular carcinoma HepG2 cells; set-up: method as in Yoo et al., 2005; Song et al., 2014, 2020; details: ref Yoo et al., 2005; Song et al., 2014, 2020; cited from earlier work
C. albicans strains = experiment: Fungistatic activity assay, broth microdilution, values given over several strains; type: cell-based, Candida albicans; details: Candida albicans; C. albicans 636/20, 595/20, 38 and ATTC90028; read-out: MIC50 (over all tested strains)
Description: as §1, §2

SMILES	hemolysis at 1 h, 10 µM [1] [%]	hemolysis at 1 h, 20 µM [1] [%]	hemolysis at 1 h, 40 µM [1] [%]	hemolysis at 1 h, 60 µM [1] [%]	hemolysis at 1 h, 80 µM [1] [%]	hemolysis at 1 h, 100 µM [1] [%]	Fluorescence anisotropy of the DPH probe (RBCs membrane; 20 µM)	Fluorescence anisotropy of the DPH probe (RBCs membrane; 60 µM)	Fluorescence anisotropy of the DPH probe (RBCs membrane; 100 µM)	also measured
CC(O)C(O)c1ccccc1 (stereo not drawn) [2b, 1-phenylpropane-1,2-diol]	1.04 ± 0.275	1.08 ± 0.107	1 ± 0.295	1.32 ± 0.255	1.79 ± 0.382	1.71 ± 0.054	0.286 ± 0.015	0.277 ± 0.028	0.278 ± 0.011	Change in DPH anisotropy / RBCs membrane fluidity (in words) (RBCs membrane; RBCs, 20, 60 and 100 μM): increase in anisotropy; MIC50 (C. albicans ATTC 90028): 125 µg/mL (≈ 821 µM); MIC50 (C. albicans 636/20): 121 µg/mL (≈ 795 µM); Toxicity of substrate to the strain (in words) (Dietzia sp. DSM44016): toxic; Inhibitory effect of substrate on the strains (in words) [2]: inhibitory effect; Effect on Caco-2 proliferation / viability (in words) (Caco-2 cells): strongest inhibition; Effect on HepG2 proliferation / viability (in words) (HepG2 cells): highest inhibitory effect
C/C=C/c1ccc(OC)cc1 [3a, anethole]	1.36 ± 0.296	1.14 ± 0.159	2.23 ± 0.13	2.54 ± 0.267	2.2 ± 0.108	2.5 ± 0.39	0.263 ± 0.005	0.261 ± 0.009	0.259 ± 0.008	EC50 antiradical activity [3]: 19.13 µg/mL (≈ 129 µM); Proliferation and apoptosis in MG63 cell line (in words) [4]: caused abrogation in proliferation and induces apoptosis; MIC50 (C. albicans 595/20): 62 µg/mL (≈ 418 µM); Effect on growth of HepG2 cells (in words) [5]: inhibited the growth; MIC50 (C. albicans strains): 62 to 100 µg/mL (≈ 418 to 675 µM)
